Earlier results in paper PMC8880098, “Synthesis, Antibacterial Evaluation, and Computational Studies of a Diverse Set of Linezolid Conjugates” (Pharmaceuticals, 2022).
≈ marks a conversion by molar mass, not a printed value.

Experiments:
[1] = test system: Pseudomonas aeruginosa ATCC 15692; design: method as in PMID 27025339; settings: reference fluoroquinolones, cited from earlier work; for MIC (μmol), P. Aeruginosa (ATCC 15692): value in parentheses
[2] = test system: Staphylococcus aureus ATCC 6538; design: method as in PMID 27025339; settings: reference fluoroquinolones, cited from earlier work; for MIC (μmol), S. Aureus (ATCC 6538): value in parentheses

| SMILES | MIC, μg/mL ± SE, P. Aeruginosa (ATCC 15692) [1] [µg/mL] | MIC (μmol), P. Aeruginosa (ATCC 15692) [1] [µmol] | MIC, μg/mL ± SE, S. Aureus (ATCC 6538) [2] [µg/mL] | MIC (μmol), S. Aureus (ATCC 6538) [2] [µmol] |
| --- | --- | --- | --- | --- |
| O=C(O)c1cn(C2CC2)c2cc(N3CCNCC3)c(F)cc2c1=O [Ciprofloxacin] | 4.8 ± 0.5 (≈ 14.5 µM) | 14.5 | 1250.0 ± 9.6 (≈ 3770 µM) | 3772.4 |
| CCn1cc(C(=O)O)c(=O)c2cc(F)c(N3CCNCC3)cc21 [Norfloxacin] | 4.8 ± 0.2 (≈ 15 µM) | 15.0 | 1250.0 ± 14.2 (≈ 3910 µM) | 3914.3 |
